ChEMBL document CHEMBL5291721, “A preclinical secondary pharmacology resource illuminates target-adverse drug reaction associations of marketed drugs” (Nat Commun, 2023)
“And” between values parts separate entries of the source, which are not always exact repeats. Equal values may be shown once.

What was measured:
[1] = biological target: Mu-type opioid receptor (Homo sapiens, UniProt P35372)
[2] = biological target: T1, Muscarinic acetylcholine receptor M2 (Homo sapiens, UniProt P08172)
T1 sequence (P08172 whole entry): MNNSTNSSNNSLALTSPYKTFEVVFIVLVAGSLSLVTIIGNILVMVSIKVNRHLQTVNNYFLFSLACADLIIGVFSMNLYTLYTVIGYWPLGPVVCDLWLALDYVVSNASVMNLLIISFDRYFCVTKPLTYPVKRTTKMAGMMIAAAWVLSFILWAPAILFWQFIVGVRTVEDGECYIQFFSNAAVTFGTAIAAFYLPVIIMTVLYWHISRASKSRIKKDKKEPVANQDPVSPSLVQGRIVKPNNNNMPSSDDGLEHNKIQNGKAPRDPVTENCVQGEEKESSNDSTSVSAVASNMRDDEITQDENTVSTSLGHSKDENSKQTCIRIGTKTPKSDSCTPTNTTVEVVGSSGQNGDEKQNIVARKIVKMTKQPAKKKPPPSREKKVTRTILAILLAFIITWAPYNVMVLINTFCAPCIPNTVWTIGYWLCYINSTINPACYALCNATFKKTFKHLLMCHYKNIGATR

[3] = biological target: Histamine H3 receptor (Homo sapiens, UniProt Q9Y5N1)
Histamine H3 receptor, sequence (Q9Y5N1 whole entry): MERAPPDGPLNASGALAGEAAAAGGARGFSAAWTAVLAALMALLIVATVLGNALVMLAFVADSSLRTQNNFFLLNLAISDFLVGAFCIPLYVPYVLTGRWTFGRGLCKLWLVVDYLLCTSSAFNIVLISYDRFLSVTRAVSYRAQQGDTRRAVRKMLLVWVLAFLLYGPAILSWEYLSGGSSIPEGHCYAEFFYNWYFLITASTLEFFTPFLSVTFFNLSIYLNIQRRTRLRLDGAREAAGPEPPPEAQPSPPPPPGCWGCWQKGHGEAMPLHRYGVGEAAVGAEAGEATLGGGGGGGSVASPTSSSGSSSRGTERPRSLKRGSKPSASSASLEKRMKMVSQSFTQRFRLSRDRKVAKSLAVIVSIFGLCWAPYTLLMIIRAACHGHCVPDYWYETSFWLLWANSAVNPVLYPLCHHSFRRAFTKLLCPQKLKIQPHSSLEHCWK

[4] = biological target: 5-hydroxytryptamine receptor 2B (Homo sapiens, UniProt P41595); type: functional, cell-based
5-hydroxytryptamine receptor 2B, sequence (P41595 whole entry): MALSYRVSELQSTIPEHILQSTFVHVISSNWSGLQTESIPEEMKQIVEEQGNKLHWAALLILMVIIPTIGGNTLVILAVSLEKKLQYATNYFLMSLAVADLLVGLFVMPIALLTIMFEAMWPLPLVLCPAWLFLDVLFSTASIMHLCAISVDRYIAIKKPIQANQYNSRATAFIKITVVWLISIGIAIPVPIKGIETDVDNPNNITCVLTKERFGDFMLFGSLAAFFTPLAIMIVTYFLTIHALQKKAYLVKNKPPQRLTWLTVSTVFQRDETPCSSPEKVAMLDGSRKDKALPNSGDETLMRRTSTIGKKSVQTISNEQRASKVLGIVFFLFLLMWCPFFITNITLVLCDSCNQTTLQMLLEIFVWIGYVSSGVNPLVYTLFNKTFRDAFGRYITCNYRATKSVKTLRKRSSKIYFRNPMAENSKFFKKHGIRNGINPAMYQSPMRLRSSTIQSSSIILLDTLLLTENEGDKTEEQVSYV

[5] = biological target: Cannabinoid receptor 1 (Homo sapiens, UniProt P21554); type: functional, cell-based
Cannabinoid receptor 1, sequence (P21554 whole entry): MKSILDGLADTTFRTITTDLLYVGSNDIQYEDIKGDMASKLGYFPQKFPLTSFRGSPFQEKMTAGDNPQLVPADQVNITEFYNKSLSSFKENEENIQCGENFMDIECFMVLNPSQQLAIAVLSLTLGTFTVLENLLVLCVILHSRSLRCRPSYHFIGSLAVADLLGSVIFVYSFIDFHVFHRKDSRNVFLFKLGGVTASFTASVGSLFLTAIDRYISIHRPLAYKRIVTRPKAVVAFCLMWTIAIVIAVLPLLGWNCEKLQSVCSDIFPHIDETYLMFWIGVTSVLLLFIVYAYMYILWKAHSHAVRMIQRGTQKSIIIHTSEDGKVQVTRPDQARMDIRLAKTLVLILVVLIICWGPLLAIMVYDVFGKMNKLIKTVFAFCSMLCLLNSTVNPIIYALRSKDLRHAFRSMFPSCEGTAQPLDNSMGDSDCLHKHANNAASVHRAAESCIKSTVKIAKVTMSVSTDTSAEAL

[6] = biological target: T2, Progesterone receptor (Homo sapiens, UniProt P06401); type: functional
T2 sequence (P06401 whole entry): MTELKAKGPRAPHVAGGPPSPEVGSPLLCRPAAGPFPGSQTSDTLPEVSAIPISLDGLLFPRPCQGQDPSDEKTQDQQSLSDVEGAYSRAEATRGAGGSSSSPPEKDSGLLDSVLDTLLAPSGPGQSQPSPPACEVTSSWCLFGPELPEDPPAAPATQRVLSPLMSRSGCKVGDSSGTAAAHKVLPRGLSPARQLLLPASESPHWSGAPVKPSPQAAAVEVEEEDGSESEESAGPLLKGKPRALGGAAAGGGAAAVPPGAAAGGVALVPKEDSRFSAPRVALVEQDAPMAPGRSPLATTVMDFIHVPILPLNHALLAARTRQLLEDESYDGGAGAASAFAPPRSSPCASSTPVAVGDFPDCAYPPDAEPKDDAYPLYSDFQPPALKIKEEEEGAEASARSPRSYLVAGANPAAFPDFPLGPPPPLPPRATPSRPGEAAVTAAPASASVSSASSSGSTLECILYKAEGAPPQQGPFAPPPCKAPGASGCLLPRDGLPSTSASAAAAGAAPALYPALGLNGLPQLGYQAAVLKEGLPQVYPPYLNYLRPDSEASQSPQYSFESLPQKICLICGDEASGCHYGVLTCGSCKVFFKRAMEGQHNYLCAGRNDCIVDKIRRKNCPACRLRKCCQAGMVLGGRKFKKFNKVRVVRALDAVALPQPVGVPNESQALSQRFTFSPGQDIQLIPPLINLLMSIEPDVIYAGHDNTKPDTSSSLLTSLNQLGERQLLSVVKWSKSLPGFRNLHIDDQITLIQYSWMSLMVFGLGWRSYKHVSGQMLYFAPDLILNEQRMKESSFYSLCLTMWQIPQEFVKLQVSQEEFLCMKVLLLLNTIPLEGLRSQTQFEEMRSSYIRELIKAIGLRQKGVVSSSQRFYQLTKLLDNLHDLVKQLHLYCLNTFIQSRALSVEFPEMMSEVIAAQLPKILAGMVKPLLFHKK

[7] = biological target: Voltage-dependent L-type calcium channel subunit alpha-1C (Rattus norvegicus, UniProt P22002); type: functional
Voltage-dependent L-type calcium channel subunit alpha-1C, sequence (P22002 whole entry): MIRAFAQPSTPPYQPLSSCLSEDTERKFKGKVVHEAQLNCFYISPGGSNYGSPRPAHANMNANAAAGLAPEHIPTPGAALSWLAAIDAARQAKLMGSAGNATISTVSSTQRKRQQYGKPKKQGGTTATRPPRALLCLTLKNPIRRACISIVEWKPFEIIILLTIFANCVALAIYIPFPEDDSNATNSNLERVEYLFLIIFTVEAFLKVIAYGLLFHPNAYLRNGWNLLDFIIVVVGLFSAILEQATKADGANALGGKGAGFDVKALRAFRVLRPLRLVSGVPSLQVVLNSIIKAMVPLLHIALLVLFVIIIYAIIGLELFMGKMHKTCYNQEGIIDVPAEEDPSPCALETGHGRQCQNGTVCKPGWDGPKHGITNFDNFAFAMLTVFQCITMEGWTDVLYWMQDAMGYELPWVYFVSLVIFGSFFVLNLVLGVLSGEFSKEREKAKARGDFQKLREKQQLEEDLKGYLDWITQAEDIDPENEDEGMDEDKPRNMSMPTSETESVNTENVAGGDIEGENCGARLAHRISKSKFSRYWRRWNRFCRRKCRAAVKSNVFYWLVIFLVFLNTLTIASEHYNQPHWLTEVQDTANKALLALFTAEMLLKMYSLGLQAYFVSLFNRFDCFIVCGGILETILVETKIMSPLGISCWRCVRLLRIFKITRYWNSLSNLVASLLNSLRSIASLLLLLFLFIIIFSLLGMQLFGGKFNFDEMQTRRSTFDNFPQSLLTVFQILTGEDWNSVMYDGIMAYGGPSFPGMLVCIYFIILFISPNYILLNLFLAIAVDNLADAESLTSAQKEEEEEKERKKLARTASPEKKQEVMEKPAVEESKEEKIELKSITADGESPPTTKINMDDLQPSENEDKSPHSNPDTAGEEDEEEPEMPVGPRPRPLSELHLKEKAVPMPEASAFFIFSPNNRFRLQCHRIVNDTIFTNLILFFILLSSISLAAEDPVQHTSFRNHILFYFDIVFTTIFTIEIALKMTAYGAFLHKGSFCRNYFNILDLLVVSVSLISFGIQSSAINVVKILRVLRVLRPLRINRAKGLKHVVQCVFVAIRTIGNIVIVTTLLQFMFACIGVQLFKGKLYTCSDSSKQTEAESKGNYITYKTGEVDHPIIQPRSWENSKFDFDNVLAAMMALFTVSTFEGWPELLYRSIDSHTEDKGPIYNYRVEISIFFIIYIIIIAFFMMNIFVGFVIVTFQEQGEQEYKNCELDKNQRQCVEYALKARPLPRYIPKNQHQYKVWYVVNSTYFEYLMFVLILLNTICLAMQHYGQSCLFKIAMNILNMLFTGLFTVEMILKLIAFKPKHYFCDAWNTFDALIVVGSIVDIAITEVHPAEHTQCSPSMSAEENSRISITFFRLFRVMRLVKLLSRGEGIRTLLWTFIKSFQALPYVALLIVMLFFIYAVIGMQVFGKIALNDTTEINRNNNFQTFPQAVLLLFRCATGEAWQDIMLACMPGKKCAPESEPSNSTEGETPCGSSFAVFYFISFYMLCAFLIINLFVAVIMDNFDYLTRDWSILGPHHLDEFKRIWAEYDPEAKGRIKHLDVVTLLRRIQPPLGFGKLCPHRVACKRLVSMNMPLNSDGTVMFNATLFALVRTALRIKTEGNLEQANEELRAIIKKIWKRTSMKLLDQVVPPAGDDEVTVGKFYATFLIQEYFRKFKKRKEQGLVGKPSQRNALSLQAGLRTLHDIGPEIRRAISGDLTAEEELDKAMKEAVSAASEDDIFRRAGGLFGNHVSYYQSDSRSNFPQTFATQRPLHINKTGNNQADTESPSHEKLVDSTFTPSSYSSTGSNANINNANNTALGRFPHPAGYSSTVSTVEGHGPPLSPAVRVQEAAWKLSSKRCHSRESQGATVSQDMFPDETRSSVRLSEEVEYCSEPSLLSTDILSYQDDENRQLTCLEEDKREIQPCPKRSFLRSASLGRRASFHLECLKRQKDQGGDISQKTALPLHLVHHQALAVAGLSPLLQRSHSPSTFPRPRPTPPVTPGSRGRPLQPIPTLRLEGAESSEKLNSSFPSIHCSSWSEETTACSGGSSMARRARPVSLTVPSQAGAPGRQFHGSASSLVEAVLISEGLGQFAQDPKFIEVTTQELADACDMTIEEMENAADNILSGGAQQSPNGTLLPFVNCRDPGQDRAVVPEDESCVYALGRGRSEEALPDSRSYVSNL

[8] = biological target: T3, Muscarinic acetylcholine receptor M1 (Homo sapiens, UniProt P11229); type: functional
T3 sequence (P11229 whole entry): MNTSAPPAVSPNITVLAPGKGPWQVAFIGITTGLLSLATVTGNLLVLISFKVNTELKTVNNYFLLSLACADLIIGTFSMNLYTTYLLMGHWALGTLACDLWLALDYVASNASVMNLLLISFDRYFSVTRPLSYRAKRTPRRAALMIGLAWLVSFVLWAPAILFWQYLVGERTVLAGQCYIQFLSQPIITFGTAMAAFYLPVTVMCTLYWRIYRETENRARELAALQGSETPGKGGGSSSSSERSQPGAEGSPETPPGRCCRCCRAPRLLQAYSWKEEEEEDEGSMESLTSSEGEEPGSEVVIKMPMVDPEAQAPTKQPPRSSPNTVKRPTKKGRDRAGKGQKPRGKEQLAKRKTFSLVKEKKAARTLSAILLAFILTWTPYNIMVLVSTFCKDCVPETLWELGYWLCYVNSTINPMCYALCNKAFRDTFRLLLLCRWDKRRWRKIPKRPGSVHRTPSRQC

[9] = biological target: T4, Alpha-2A adrenergic receptor (Homo sapiens, UniProt P08913); type: functional, cell-based
T4 sequence (P08913 whole entry): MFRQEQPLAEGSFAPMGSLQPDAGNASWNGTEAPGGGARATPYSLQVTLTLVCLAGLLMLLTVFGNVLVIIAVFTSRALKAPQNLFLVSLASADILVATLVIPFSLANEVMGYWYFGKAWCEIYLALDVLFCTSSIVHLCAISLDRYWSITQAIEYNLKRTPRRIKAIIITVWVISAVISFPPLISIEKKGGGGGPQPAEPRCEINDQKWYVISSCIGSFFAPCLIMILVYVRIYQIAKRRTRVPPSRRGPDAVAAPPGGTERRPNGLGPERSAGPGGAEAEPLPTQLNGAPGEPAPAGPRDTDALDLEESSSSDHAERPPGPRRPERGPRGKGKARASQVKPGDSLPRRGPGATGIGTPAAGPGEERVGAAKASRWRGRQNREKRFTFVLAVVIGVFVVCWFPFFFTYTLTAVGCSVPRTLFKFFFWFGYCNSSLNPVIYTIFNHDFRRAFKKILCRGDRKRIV
Further: assay procedure not described here.

Mu-type opioid receptor, sequence (P35372 whole entry): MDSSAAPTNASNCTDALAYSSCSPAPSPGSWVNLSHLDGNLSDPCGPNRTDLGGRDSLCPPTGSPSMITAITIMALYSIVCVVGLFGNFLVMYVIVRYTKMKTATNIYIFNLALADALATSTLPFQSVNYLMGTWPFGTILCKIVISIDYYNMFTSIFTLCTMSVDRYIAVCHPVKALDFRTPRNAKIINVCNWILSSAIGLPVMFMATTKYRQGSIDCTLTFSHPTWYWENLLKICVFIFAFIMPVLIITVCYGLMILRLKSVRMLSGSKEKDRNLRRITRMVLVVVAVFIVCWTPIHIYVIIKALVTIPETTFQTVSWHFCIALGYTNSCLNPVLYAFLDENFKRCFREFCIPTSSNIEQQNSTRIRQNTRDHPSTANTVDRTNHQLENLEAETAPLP

Compound	AC50 [1] [µM]	AC50 [2] [µM]	AC50 [3] [µM]	AC50 [4] [µM]	AC50 [5] [µM]	AC50 [6] [µM]	AC50 [7] [µM]	AC50 [8]	AC50 [9] [µM]
CC(=O)O[C@]1(C(C)=O)CC[C@H]2[C@@H]3C=C(Cl)C4=CC(=O)CC[C@]4(C)[C@H]3CC[C@@]21C [CHLORMADINONE ACETATE]	> 30	25.3	> 30	> 30	–	–	–	–	–
CCN(CCCc1ccccc1)CCCc1ccccc1 [ALVERINE]	2	0.134	> 30	> 30	–	–	–	–	–
COc1cc2c(cc1OC)CC(=O)N(CCCN(C)C[C@H]1Cc3cc(OC)c(OC)cc31)CC2 [IVABRADINE]	> 30	3.35	> 30	> 30	–	–	–	–	–
COc1cc(N2CCC(N3CCN(C)CC3)CC2)ccc1Nc1ncc(Cl)c(Nc2ccccc2P(C)(C)=O)n1 [BRIGATINIB]	> 30	> 30	2.53	> 30	–	–	–	–	–
CCN(CC)C(=S)S [DITIOCARB]	> 30	> 30	> 30	> 30	–	–	–	–	–
C[C@]12CCC(=O)C(O)=C1CC[C@@H]1[C@@H]2CC[C@]2(C)C(=O)CC[C@@H]12 [FORMESTANE]	–	–	–	–	> 30	3.7	> 30	> 30 µM	> 30
CC(C)(C)NC[C@H](O)COc1cccc2c1CCCC2=O [LEVOBUNOLOL]	> 30	> 30	> 30	> 30	–	–	–	–	–
CCC1(c2ccccc2)CCC(=O)NC1=O (configuration not stated) [GLUTETHIMIDE]	–	–	–	–	> 30	> 10	> 10	> 10 µM	> 10
CCOC(=O)[C@H](CCc1ccccc1)N[C@@H](C)C(=O)N(CC(=O)O)C1Cc2ccccc2C1	> 30	> 30	> 30	> 30	–	–	–	–	–
CCC(=O)O[C@]1(C(=O)CCl)[C@@H](C)C[C@H]2[C@@H]3C[C@H](F)C4=CC(=O)C=C[C@]4(C)[C@@]3(F)[C@@H](O)C[C@@]21C [HALOBETASOL PROPIONATE]	> 30	> 30	> 30	> 30	–	–	–	–	–
NCC(CC(=O)O)c1ccccc1 (configuration not stated) [PHENIBUT]	> 30	> 30	> 30	> 30	–	–	–	–	–
c1ccc2c(c1)CCc1ccccc1N2C1CN2CCC1CC2 (configuration not stated) [QUINUPRAMINE]	1.84	0.0329	> 30	> 30	–	–	–	–	–
CCOC(=O)N1CSC[C@H]1C(=O)O [TELMESTEINE]	> 30	> 30	> 30	> 30	–	–	–	–	–
C[C@H](Cc1ccc(O)c(O)c1)[C@@H](C)Cc1ccc(O)c(O)c1 [MASOPROCOL]	–	–	–	–	> 30	> 30	> 10	> 10 µM and 29 µM and > 30 µM	> 10
Cc1cc(C(C)(C)C)cc(C)c1CC1=NCCN1 [XYLOMETAZOLINE]	–	–	–	–	> 30	> 30	> 30	14.4 µM	0.0616
Cc1ncc(COP(=O)(O)O)c(C=O)c1O [PYRIDOXAL PHOSPHATE ANHYDROUS]	> 30	> 30	> 30	> 30	–	–	–	–	–

Compound	AC50 [1] [µM]	AC50 [2] [µM]	AC50 [3] [µM]	AC50 [4] [µM]	AC50 [5] [µM]	AC50 [6] [µM]	AC50 [7] [µM]	AC50 [8]	AC50 [9] [µM]
CC(N)Cc1ccc(O)cc1 (configuration not stated) [HYDROXYAMPHETAMINE]	> 30	> 30	> 30	> 30	–	–	–	–	–
C#C[C@]1(OC(C)=O)CC[C@H]2[C@@H]3CCC4=C/C(=N/O)CC[C@@H]4[C@H]3CC[C@@]21CC [NORGESTIMATE]	–	–	–	–	> 30	0.02	> 30	> 30 µM	> 30
OC1(c2ccc(Cl)cc2)c2ccccc2C2=NCCN21 (configuration not stated) [MAZINDOL]	–	–	–	–	> 30	> 30	> 10	> 30 µM	> 30
NC(=O)OCC(O)COc1ccc(Cl)cc1 (configuration not stated) [CHLORPHENESIN CARBAMATE]	> 30	> 30	> 30	> 30	–	–	–	–	–
Clc1ccc2c(N3CCN(CCCN4CCN(c5ccnc6cc(Cl)ccc56)CC4)CC3)ccnc2c1 [PIPERAQUINE]	–	–	–	–	> 30	> 30	> 30	3.8 µM	> 30
C=CCSCC1Nc2cc(Cl)c(S(N)(=O)=O)cc2S(=O)(=O)N1 (configuration not stated) [ALTHIAZIDE]	> 30	> 30	> 30	> 30	–	–	–	–	–
CN1CCN(C2=Nc3ccccc3Oc3ccc(Cl)cc32)CC1 [LOXAPINE]	8.61	–	> 30	–	> 30	–	> 10	0.794 µM	–
CN1C(=O)/C(=N\NC(N)=S)c2ccccc21 [METHISAZONE]	> 30	> 30	> 30	> 30	–	–	–	–	–
COC(=O)c1ccc(O)cc1 [METHYLPARABEN]	> 30	> 30	> 30	> 30	–	–	–	–	–
Cc1ccccc1N1CCN(CCc2nnc3n2CCCC3)CC1 [DAPIPRAZOLE]	> 30	7.61	> 30	> 30	–	–	–	–	–
COc1cc(N)c(Cl)cc1C(=O)NC1CCN(Cc2ccccc2)CC1 [CLEBOPRIDE]	–	–	–	–	> 30	> 30	> 30	> 30 µM	14
Cc1cccc(N2CC(CO)OC2=O)c1 (configuration not stated) [TOLOXATONE]	–	–	–	–	> 30	> 30	> 30	> 30 µM	> 30
COCC1=C(C(=O)O)N2C(=O)[C@@H](NC(=O)/C(=N\OC)c3csc(N)n3)[C@H]2SC1 [CEFPODOXIME]	–	–	–	–	> 30	> 30	> 30	> 30 µM	> 30
CN(C)CCCNc1c2ccccc2nc2cccc([N+](=O)[O-])c12 [NITRACRINE]	–	–	–	–	> 30	> 30	> 30	11 µM	> 30
CCC(=O)O[C@H]1CC[C@H]2[C@@H]3CCC4=CC(=O)CC[C@]4(C)[C@H]3CC[C@]12C [TESTOSTERONE PROPIONATE]	–	–	–	–	> 30	0.328	> 10	> 10 µM	> 10
